The numbers were not newly measured in patent US5470884A, “Anti-acne compositions” (Procter & Gamble, priority 1994, dated 1995), which cites them from elsewhere.

The subject of this data set is skin. To be noted: excessive drying, scaling, swelling, burning, peeling, redness, allergic contact dermatitis, sensitization.

SMILES strings stand for the structures.

On to `O=C(OOC(=O)c1ccccc1)c1ccccc1` [benzoyl peroxide], for which the skin irritation result is on record as “very irritating to the skin”.
